According to patent US11166942B2 (PRAXIS BIOTECH LLC, priority 2018, dated 2021):

Assays:
[1] = test system: fasted Balb/c mice, quadriceps; assay: Fasting-induced muscle atrophy; assay type: in vivo, mouse; conditions: 10 mg/kg oral
Protocol: Wild type eight-weeks-old male Balb/c mice obtained from the vivarium Fundación Ciencia & Vida Chile (Santiago, Chile) were used. Mice were housed in independent plastic cages in a room maintained at 25° C. with a 12-h:12-h light:dark cycle.
Twenty-four hours before and during the 2 days of fasted procedures, animals were weighed and receive oral administration via feeding tubes (15 gauge) of vehicle (50% Polyethylene glycol 400 (Sigma-Aldrich P3265) in distilled water or 10 mg/kg of test compound formulated in vehicle solution.
After 2 days of fasting the animals were weighed and sacrificed. Quadriceps were removed from both hindlimbs and weighed. Mice with feed and water ad libitum were used as control. […]
Upon collection, muscles were immediately frozen in liquid nitrogen and then stored at −80° C. […] Protein concentration in supernatants was determined using BCA Protein Assay Kit (Pierce). […]
Puromycin (12D10) (Merck Millipore) ATF4 (Abcam), Atrogin-1 (ECM Biosciences), MuRF-1 (Santa Cruz Biotechnology) and β-actin (Sigma-Aldrich) antibodies were used as primary antibodies. […] Quantification of protein bands was done by densitometry using ImageJ software. […]

ATF4 = ATF4 inhibition assay under Aβ stimulation (SH-SY5Y cells with 7PA2 CHO conditioned media); assay type: cell-based, human; conditions: 16 hours, 1 nM to 10 μM compound (FIG. 7)
Protocol: Chinese hamster ovary (CHO) cells that stably express human APP751 incorporating the familial Alzheimer's disease mutation V717F were used as a source of […] monomer and low-n oligomers. These cells, referred to as 7PA2 CHO cells, were cultured in 100 mm dishes with Dulbecco's modified Eagle's medium (DMEM) containing 10% fetal bovine serum, 2 mM L-glutamine, 100 U/ml penicillin, and 100 μg/ml […], streptomycin and […] G418. Upon reaching 90-100% confluency, cells were washed with 5 mL of glutamine- and serum-free DMEM and incubated for approximately 16 h in 5 mL of the same DMEM. Conditioned media (CM) was collected.
SH-SY5Y cells were maintained at 37° C. and 5% CO2 in RPMI 1640 media supplemented with 10% fetal bovine serum (FBS), penicillin and streptomycin. After reaching 80% of confluence, cells were detached and seeded on 6 well plates in complete media, allowed to recover 48 h and treated for 16 hours with CM from WT CHO cells (wtCM) or 7PA2 CHO cells (7PA2CM) in the presences of various concentrations ranging from 1 nM to 10 μM of compound 58.
(§1) After 16 hours treatment, culture media were removed and cells were lysed with SDS-PAGE lysis buffer. Lysates were transferred to 1.5 ml tubes and sonicated for 3 min. Total protein amount was quantified using BCA Protein Assay Kit (Pierce). Equal amount of proteins (30 μg) were loaded on SDS-PAGE gels. […]

CHO cells = assay: Protein production by transient gene expression (GFP in CHO cells); assay type: cell-based, Chinese hamster; conditions: pIRES2-AcGFP1, 1 μM or 5 μM, 24 hours (FIGS. 12A, 12B)
Protocol: CHO cells were maintained at 37° C. and 5% CO2 in DMEM supplemented with 10% fetal bovine serum (FBS), 2 mM L-glutamine, 100 U/ml penicillin, and 100 μg/ml streptomycin. After reaching 80% of confluence, cells were detached and seeded on 6-well plates in complete media and allowed to recover for 48 h. Cells were then washed three times with PBS and transfected with 1 μg of plasmid pIRES2-AcGFP1 (Clonetech 632435) using Lipofectamine LTX (Thermofisher Scientific) according to manufacturer instructions. Transfection media was supplemented with culture medium alone (vehicle) or 1 μM or 5 μM compound 58 in culture medium.
as §1, with “After 24” for “After 16”, “μg) was” for “μg) were”
GFP (cell Signaling) and β-actin (Sigma-Aldrich) antibodies were used as primary antibodies. […] Quantification of protein bands was done by densitometry using ImageJ software.
The levels were normalized to β-actin expression and percentage was calculated as the percent relative to the expression of GFP in untreated condition (Veh) which corresponds to 100%.

With `O=C(NN1CCN(C[C@@H](O)COc2ccc(Cl)c(F)c2)CC1)c1ccc2cc(Cl)ccc2n1` [Compound 58, (R)-6-chloro-N-(4-(3-(4-chloro-3-fluorophenoxy)-2-hydroxypropyl)piperazin-1-yl)quinoline-2-carboxamide] as the molecule, how does the “ATF4 expression in quadriceps” value ([1]; vs vehicle-treated fasted mice (FIG. 8F)) read?
Its value is “reduction”.

And the “Atrogin-1 expression in quadriceps” value ([1]; vs vehicle-treated fasted mice (FIG. 8G))?
Its value is “reduction”.

And the “ATF4 expression in the presence of Aβ oligomers (immunoblot)” value (ATF4)?
The value was “inhibits the expression of ATF4 in the presence of Aβ oligomers treatment in a dose dependent manner”.

What about the “expression of GFP after transient transfection” value (CHO cells) of the same molecule?
Its value is “increased expression of GFP”.
